We go through two compounds from publication PMC9775652, “Concomitant Administration of Red Ginseng Extract with Lactic Acid Bacteria Increases the Plasma Concentration of Deglycosylated Ginsenosides in Healthy Human Subjects” (Biomolecules, 2022).

Where two headings read alike, the source gives them in different places.

In one data set the test system is LAB. The data set is described as follows: In vitro RGE fermentation with LAB. Format: in vitro ADME. The following applies: RGE incubated with LAB (1 billion CFU) for 7 days at 37 °C; result in words. The method, then:
To identify the effects of LAB on ginsenoside metabolism, an in vitro fermentation study was performed according to the method of Jeon et al., with slight modifications. Briefly, RGE (10 mL, 1 pouch) and 2 g LAB (containing 1 billion CFU) were suspended in 10 mL autoclaved MRS broth (550 mg broth powder dissolved in 10 mL water). For the 15 ginsenosides, individual ginsenosides (10 μM each) and 2 g of LAB were suspended in 20 mL of autoclaved MRS broth (550 mg broth powder dissolved in 20 mL water). The mixture was incubated for 7 days in a shaking incubator at 37 °C and 300 rpm, and a 0.1 mL aliquot of the incubation mixture was collected on days 0, 3, 5, and 7. The incubation medium was diluted 100-fold with distilled water and stored at −80 °C to analyze ginsenosides using the LC-MS/MS system.
To measure the metabolic activity of ginsenosides, the formation rate of ginsenosides (pmol/day) was calculated by dividing the slope of the regression line by the amount of deglycosylated ginsenosides versus the incubation time plot by the initial concentration of individual ginsenosides.

The next data set has as its target T1, P-gp (Homo sapiens, UniProt P08183).
T1 construct: host or cells: LLC-PK1-P-gp cells (passage no. 25–28)
The data set is described as follows: Transport of ginsenosides in P-gp-overexpressing LLC-PK1-P-gp cells. Format: in vitro ADME. How it is done:
LLC-PK1-P-gp cells (passage no. 25–28) were seeded onto collagen-coated permeable support (1.0 μm pore size) in 24-well plates at a density of 2.5 × 10^4 cells/insert and grown for 5 days with TEER values of over 500 Ω·cm^2 [24]. The A to B transport and B to A transport of GRg3, GRh2, CK, PPD, GRg1, GRh1, and PPT (20 μM each) were measured as previously described. The concentration dependency in the B to A transport of GRh2, CK, PPD, and PPT was measured in the range of 6.25–200 μM for GRh2, CK, PPD, and PPT.
(§1) For the transport study of ginsenosides in CaCo-2 cells and LLC-PK1-P-gp cells, the ginsenoside transport rate in the A to B or B to A directions was calculated from the slope of the regression line from the mean transported amounts versus time plot. The apparent permeability (Papp) was calculated using Equation (1). (1) Papp (×10^−6 cm/s)=transport rate (nmol/min)/concentration(μM)×area(cm^2)×60s
(§2) The efflux ratio was calculated by dividing the Papp of ginsenosides from the B to A direction by that from the A to B direction.
To measure the kinetic parameters of the concentration dependence on the P-gp-mediated ginsenoside efflux, the ginsenoside transport rate in the B to A direction (ν) versus the ginsenoside concentration (S) plot was fitted in the Michaelis–Menten Equation (2) using Sigma Plot (version 12.0, Systat Software Inc. Chicago, IL, USA). (2) ν=Vmax×S/Km+S

Data set [1] in a line: Transport (permeability) of ginsenosides in CaCo-2 cell monolayers. Format: in vitro ADME. The following applies: human, Caco-2, Efflux ratio (ER). How it is done:
CaCo-2 cells (passage no 41–43) were seeded onto collagen-coated permeable support (1.0 μm pore size) in a 24-well plate at a density of 2.5 × 10^4 cells/insert and cultured for 21 days in Dulbecco’s modified eagle’s medium supplemented with 10% fetal bovine serum, 1% non-essential amino acids, and 1% penicillin-streptomycin at 37 °C in a humidified atmosphere (5% CO2/95% air). After confirming that the transepithelial electrical resistance (TEER) of the CaCo-2 cell monolayer was over 400 Ω·cm^2, Apical to basal (A to B) transport and B to A transport of ginsenosides using 50 µM, GRb1 was investigated as previously described. The same permeability study was performed using 50 µM GRb2, GRc, GRd, GRg3, GRh2, GF2, CK, PPD, GRe, GRf, GRg1, GRh1, GF1, or PPT.
as §1, §2
In general terms: Caco-2 cells form a polarised layer with tight junctions and transporters.

The conditions of data set [2]: rat, in vivo, po; cited from earlier work.
The nature of data set [3]: Pharmacokinetic study of ginsenosides in healthy humans after repeated oral RGE with or without LAB. In kind it is in vivo, human. Particulars: male, human, in vivo, po; for AUC: 104.1 mg. How it is done: A single-sequence study consisting of two periods was conducted on five healthy male subjects (body weight > 50 kg and age > 19 years) for 29 days. During the first period of the study (RGE treatment group), three pouches of RGE (30 mL, 104.1 mg of total ginsenosides) were administered to 5 subjects once daily for 14 days. On the 14th day, the subjects were admitted to the Clinical Trial Center of KNUH at 7 AM and underwent the last RGE administration at approximately 8–9 AM. Blood samples (approximately 3 mL) were collected at 0, 4, 6, 8, 10, 12, 13, 14, and 24 h after the last dose. A saline-locked angiocatheter was placed on the forearm of each subject’s hand. After discarding 1 mL of blood derived from the catheter, 3 mL of blood was drawn into a vacutainer tube containing heparin and centrifuged at 3000× g for 10 min. The supernatant plasma samples were stored at −80 °C until ginsenoside analysis.
In the second half of the study (RGE + LAB treatment group), 3 pouches of RGE (30 mL, 104.1 mg of total ginsenosides) and 1 pouch of LAB (1 billion CFU/2 g) were co-administered once daily for 14 days. On the […], the subjects were admitted to the Clinical Trial Center of KNUH at 7 AM and received the last red ginseng dose at approximately 8–9 AM. Blood samples (approximately 3 mL) were withdrawn at 0, 4, 6, 8, 10, 12, 13, 14, and 24 h intervals after the last dose and centrifuged at 3000× g for 10 min; the supernatant plasma samples were stored at −80 °C.
Briefly, to analyze GRb1, GRb2, GRc, GRd, GRe, GRf, GRg1, GRg3, GF1, and GF2, 400 μL of an internal standard (IS; 0.05 ng/mL berberine in methanol) was added to 100 μL of plasma. The mixture was vortexed for 15 min and centrifuged at 16,000× g for 5 min. After centrifugation, 400 μL of the supernatant was evaporated using a speed-dry vacuum concentrator (Christ, Osterode am Harz, Germany). The residue was reconstituted using 200 μL of 70% methanol supplemented with 0.1% formic acid, and a 10 μL aliquot was injected into the LC-MS/MS system. Chromatographic separation was performed using a Polar RP column (150 × 2.0 mm, 4.0 μm particle size; Phenomenex, Torrance, CA, USA) using a mobile phase consisting of 0.1% formic acid in water (phase A) and 0.1% formic acid in methanol (phase B). The following elution gradient was used: 69% of phase B for 0–2.0 min, 69–85% of phase B for 2.0–4.0 min, and 85–69% of phase B for 6.0–6.5 min. The flow rate was 0.27 mL/min.
The mixture was vortexed for 10 min and centrifuged at 16,000× g for 5 min. After centrifugation, the samples were frozen at −80 °C for 4 h. The upper layer was transferred to a clean tube and evaporated. The residue was reconstituted using 200 μL of 80% methanol supplemented with 0.1% formic acid, and a 10 μL aliquot was injected into the LC-MS/MS system. Chromatographic separation was performed using a Luna C18 column (150 × 2.0 mm, 3.0 μm particle size; Phenomenex, Torrance, CA, USA) and using a mobile phase consisting of water containing 0.1% formic acid: methanol containing 0.1% formic acid = 8:92 (v/v) at a flow rate of 0.15 mL/min.
The quantification of ginsenosides was carried out using multiple reaction monitoring in positive ionization mode, as previously described.
Finally, pharmacokinetic parameters were calculated using non-compartmental methods (WinNonlin version 5.1; Pharsight Co., Certara, NJ, USA). Statistical analysis was performed by Student’s t-test to compare the two groups using IBM SPSS Statistics for Windows (version 25.0; IBM Corp., Armonk, NY, USA). Differences were considered significant at p < 0.05.

On the set-up of data set [4]: method as in PMID 34575573. The following applies: mice, LAB supplementation (Lacto-fit) for two weeks; cited from earlier work.

T1 sequence (P08183 whole entry): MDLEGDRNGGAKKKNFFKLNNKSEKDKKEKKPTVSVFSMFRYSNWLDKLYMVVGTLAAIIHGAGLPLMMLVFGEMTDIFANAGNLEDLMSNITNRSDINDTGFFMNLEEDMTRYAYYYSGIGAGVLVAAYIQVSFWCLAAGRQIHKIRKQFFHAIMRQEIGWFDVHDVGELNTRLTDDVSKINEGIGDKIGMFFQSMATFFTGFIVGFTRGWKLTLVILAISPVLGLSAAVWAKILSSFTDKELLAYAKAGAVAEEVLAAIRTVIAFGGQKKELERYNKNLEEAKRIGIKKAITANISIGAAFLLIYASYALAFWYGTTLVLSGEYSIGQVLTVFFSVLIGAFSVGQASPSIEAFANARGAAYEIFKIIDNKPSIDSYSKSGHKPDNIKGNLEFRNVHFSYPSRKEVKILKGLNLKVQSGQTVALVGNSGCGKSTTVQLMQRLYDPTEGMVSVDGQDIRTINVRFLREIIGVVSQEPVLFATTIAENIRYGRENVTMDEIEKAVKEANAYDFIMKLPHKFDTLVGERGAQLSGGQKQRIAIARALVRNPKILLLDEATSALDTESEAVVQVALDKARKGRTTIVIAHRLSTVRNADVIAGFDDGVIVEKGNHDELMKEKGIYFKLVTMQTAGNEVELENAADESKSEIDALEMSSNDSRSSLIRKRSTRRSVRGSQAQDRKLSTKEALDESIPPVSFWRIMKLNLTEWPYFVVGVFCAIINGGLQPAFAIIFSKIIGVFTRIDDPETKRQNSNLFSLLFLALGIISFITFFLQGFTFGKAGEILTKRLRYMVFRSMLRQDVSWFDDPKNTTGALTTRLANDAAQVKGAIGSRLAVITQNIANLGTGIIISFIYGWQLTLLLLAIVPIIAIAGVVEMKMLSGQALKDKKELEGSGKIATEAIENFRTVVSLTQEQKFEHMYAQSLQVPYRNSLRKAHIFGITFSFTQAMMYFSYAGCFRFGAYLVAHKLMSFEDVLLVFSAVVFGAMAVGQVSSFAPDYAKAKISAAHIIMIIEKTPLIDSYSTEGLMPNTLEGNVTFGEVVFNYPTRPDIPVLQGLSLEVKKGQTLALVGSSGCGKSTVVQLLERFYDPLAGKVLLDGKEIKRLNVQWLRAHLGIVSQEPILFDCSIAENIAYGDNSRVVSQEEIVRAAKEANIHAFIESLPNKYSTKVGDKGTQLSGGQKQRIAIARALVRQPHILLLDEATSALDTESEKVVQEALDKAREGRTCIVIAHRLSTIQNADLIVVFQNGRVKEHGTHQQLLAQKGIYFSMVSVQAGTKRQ

In general, AUC refers to the area under the concentration-time curve, a measure of exposure. One may read the Cmax as the highest concentration seen after dosing. The term MRT denotes a mean duration of stay, worked out from the concentration-time curve. Broadly, the Tmax is the time at which the peak concentration occurs. As for `CC(C)=CCCC(C)(O)C1CCC2(C)C1C(O)CC1C3(C)CCC(O)C(C)(C)C3C(O)CC12C` (stereo not shown) [PPT, 20(s)-protopanaxatriol], the “Relative abundance / metabolic activity following fermentation of RGE with LAB” value in the data set on LAB is given as “significantly increased”. Moreover, on P-gp (pig, LLC-PK1), the Papp A→B at 20 μM is 3.73 ± 0.56 ×10⁻⁶ cm/s and the Papp B→A at 20 μM is 10 ± 1.1 ×10⁻⁶ cm/s. In addition, the efflux ratio at 20 μM on P-gp (pig, LLC-PK1, ER) stood at 2.7. Further, the “CLint (intrinsic clearance)” value on P-gp (pig, llc-pk1) amounted to 231 µL/min. The efflux ratio at 50 µM in data set [1] was determined as 2.7. Further, the “Oral BA” value in data set [2] is 3.7%. In data set [3], the area under the curve (AUC) amounted to 59.9 ± 49.2 ng·h/mL, the Cmax was 9.5 ± 4.8 ng/mL, the mean residence time MRT was determined as 19.4 ± 10.5 h and the Tmax was 17.4 ± 17.4 h. In data set [4], the “AUC fold increase with LAB supplementation compared to control groups” value is on record as 1.63 fold.

In the case of `CC(C)=CCCC(C)(O)C1CCC2(C)C1C(O)CC1C3(C)CCC(O)C(C)(C)C3CCC12C` (stereo not shown) [PPD, 20(s)-protopanaxadiol], the “Relative abundance / metabolic activity following fermentation of RGE with LAB” value in the data set with LAB is listed as “significantly increased”. Moreover, the “CLint (intrinsic clearance)” value on P-gp (P-gp-mediated B to A transport in LLC-PK1-P-gp cells) came out at 5.2 µL/min. The efflux ratio at 20 μM on P-gp (pig, LLC-PK1, LLC-PK1-P-gp cells, 20 μM, B to A Papp divided by A to B Papp, read-out: ER) was 3.3. In addition, on P-gp (pig, LLC-PK1-P-gp cells, 20 μM, mean ± SD, n = 3, read-out: A to B permeability), the Papp A→B at 20 μM amounted to 0.13 ± 0.01 ×10⁻⁶ cm/s. In addition, on P-gp (pig, LLC-PK1-P-gp cells, 20 μM, mean ± SD, n = 3, read-out: B to A permeability), the Papp B→A at 20 μM amounted to 0.42 ± 0.04 ×10⁻⁶ cm/s. Also, the efflux ratio at 50 µM in data set [1] was 2.7. In data set [2], the “Oral BA” value is on record as 36.8–48.1% and the “Oral bioavailability (BA)” value is 36.8–48.1%. Also, in data set [3], the AUC stood at 130 ± 39.9 ng·h/mL, the Cmax stood at 7.6 ± 1.7 ng/mL, the mean residence time (MRT) was 18.6 ± 5 h and the Tmax is 16 ± 18.5 h. For the same compound, the “AUC fold increase with LAB supplementation compared to control groups” value in data set [4] was 2.67 fold.
